Reference: patent US11040009B2, “Expansile crosslinked polymersome for ph-sensitive delivery of anticancer drugs” (Mayo Foundation for Medical Education and Research, priority 2016, dated 2021)

Assays:
HeLa cells [1] = assay: Cell viability by MTS assay; type: cell-based; conditions: 10 μg/mL, FIG. 10
Procedure: HeLa cells were used as a model cancer cell for cytotoxicity evaluation. Trypsinized HeLa cells were seeded onto 48-well tissue culture polystyrene (TCPS) plates at 10,000 cells cm^−2. Cells were then cultured in Dulbecco's Modified Eagle's Medium (DMEM) supplemented with FBS, 100 U/mL penicillin, 2 mM L-glutamine, and 0.1 mg/mL streptomycin for 24 h to allow adhesion. To evaluate the cytotoxicity of PEG-Fu-DiTT polymersomes, empty samples without loaded drugs were prepared, dialyzed against phosphate-buffered saline (PBS) for 2 days, and lyophilized for 3 days. The dried polymersomes were then incubated with HeLa cells at concentrations of 0.1, 0.5, 1.0 and 2.0 mg/mL for 3 days. Wells seeded with the same HeLa cell density but without added polymersomes were used as positive controls. The relative cell densities in each group were determined by MTS assay (CellTiter 96 Aqueous One Solution, Promega, Madison, Wis.) by comparing the optical density (OD) value to that of positive controls (which were set at 100% cell density). To evaluate the cancer killing effect, similar cell culture procedures were used by adding DOX-loaded polymersomes or free drugs at concentrations of 0.01, 0.1, 0.5, 1, 5, 10 and 50 μg/mL.

HeLa cells [2] = assay: Cellular uptake by DOX fluorescence imaging; type: cell-based; conditions: 10 μg/mL
Procedure: HeLa cells were co-cultured with DOX-loaded polymersomes in DMEM at a drug concentration of 10 μg/mL, as described in Example 6. At time points of 1, 2, 4 hours, the culture medium was removed and cells were washed with PBS three times and then fixed in 4% paraformaldehyde. After 10 min, paraformaldehyde was removed and cells were washed three times with PBS then stained with DAPI (4′,6-diamidino-2-phenylindole) for 2 min. DOX fluorescence from polymersomes and DAPI fluorescence from cellular nuclei were visualized and photographed by Axiovert 25 Zeiss light microscope. DOX fluorescence from polymersomes appeared red, and DAPI fluorescence from cellular nuclei appeared blue.
Cellular uptake of DOX-PS particles were investigated through imaging of DOX fluorescence after 1, 3 and 5 hours of co-culture with HeLa cells. […] The first, second, and third rows correspond to incubation times of 1, 3, and 5 hours respectively.

With COc1cccc2c1C(=O)c1c(O)c3c(c(O)c1C2=O)C[C@@](O)(C(=O)CO)C[C@@H]3O[C@H]1C[C@H](N)[C@H](O)[C@H](C)O1 [unencapsulated DOX, doxorubicin] the “effect on cancer cell viability” value (HeLa cells [1]) was “inhibition effect”, the “DOX fluorescence in cells” value (HeLa cells [2]; 1 hour) was “red fluorescence” and the “DOX fluorescence in cells” value (HeLa cells [2]; 3 hour) was “slight increase in intensity”. The “DOX fluorescence in cells” value (HeLa cells [2]; 5 hour) was “slight increase in intensity”.
